Consider six compounds from patent US3954775A, “Thiazolo(5,4-f)quinoline-8-carboxylic acid derivatives” (Sumitomo Chemical Company, Limited, priority 1973, dated 1976).

What is called ED50 is the dose that gives a 50% effect, or the effect in half of the subjects.

The test system of data set [1] is Bacillus subtilis PCI 219. Put plainly: in vitro antibacterial activity, tube dilution method. In kind it is cell-based. The following applies: PCI219, read-out: In vitro Antibacterial Activities. The source says:
(§1) The in vitro antibacterial activities were compared with 6-ethyl-2,3,6,9-tetrahydro-3-methyl-2,9-dioxothiazolo[5,4-f]quinoline-8-carboxylic acid (hereinafter Compound (D)) and nalidixic acid (hereinafter Compound (E)) using the tube dilution method.

In data set [2] the test system is Diplococcus pneumoniae Newfeld. The data set is described as above. In kind it is cell-based. Particulars: Streptococcus pneumoniae, read-out: In vitro Antibacterial Activities.
Description: as §1

The subject of data set [3] is Escherichia coli NIHJ. The data set is described as above. It counts as cell-based. Particulars: read-out: In vitro Antibacterial Activities.
Description: as §1

The subject of data set [4] is Klebsiella pneumoniae PCI 602. The data set is described as above. It counts as cell-based.
Description: as §1

In data set [5] the test system is Proteus mirabilis GN-2425. The data set is described as above. In kind it is cell-based.
Description: as §1

The test system of data set [6] is Proteus vulgaris HX-19. The data set is described as above. It counts as cell-based.
Description: as §1

Data set [7] has as its system Pseudomonas aeruginosa 104. Described as above. In kind it is cell-based.
Description: as §1

Data set [8] relates to Sarcina lutea PCI 1001. Described as above. Particulars: Micrococcus luteus, PCI1001, read-out: In vitro Antibacterial Activities. In kind it is cell-based.
Description: as §1

In data set [9] the test system is Staphylococcus albus 1200 A. The data set is described as above. In kind it is cell-based. Particulars: read-out: In vitro Antibacterial Activities.
Description: as §1

Data set [10] deals with Staphylococcus aureus 209-P. The data set is described as above. In kind it is cell-based. The following applies: read-out: In vitro Antibacterial Activities.
Description: as §1

In data set [11] the test system is Streptococcus hemolyticus A-1. The data set is described as above. It counts as cell-based. The following applies: Streptococcus pyogenes, A1, read-out: In vitro Antibacterial Activities.
Description: as §1

The subject of data set [12] is gram-positive bacteria such as Staphylococcus, Streptococcus, Diplococcus. Put plainly: in vitro antibacterial activity on gram-positive bacteria, tube dilution method. In kind it is cell-based. Particulars: result in words.
Description: as §1
The antibacterial spectrum of 3-benzyl-6-benzyloxy-2,3,6,9-tetrahydro-2,9-dioxothiazolo[5,4-f]quinoline- 8-carboxylic acid (hereinafter Compoud (B)) is different from the other compounds.

Data set [13] relates to Escherichia coli No. 34. Nature of the data set: in vivo protection of infected mice, oral. The following applies: for ED50: Escherichia coli, intraperitoneal infection, oral 1 hour and 6 hours after infection, E. coli No. 34. As to the method:
(§2) The mice were inoculated intraperitoneally with the test organisms in 5% gastric mucin. The test compounds were suspended in 0.5% carboxymethylcellulose and administered orally 1 hour and 6 hours after infection.

In data set [14] the test system is Escherichia coli No. 37. Nature of the data set: in vivo protection of infected mice, oral. Particulars: intraperitoneal infection, oral 1 hour and 6 hours after infection, E. coli No. 37. As to the method: as §2
The subject of data set [15] is Proteus mirabilis GN-2425. Nature of the data set: in vivo protection of infected mice, oral. The following applies: for ED50: Proteus mirabilis, GN2425, intraperitoneal infection, oral 1 hour and 6 hours after infection, P. mirabilis GN-2425. As to the method: as §2
Data set [16] deals with organism tested. Nature of the data set: in vivo protection of infected mice, organisms tested overall. Particulars: oral, result in words. The procedure:
as §2

For data set [17] the following is noted: prior art statement in words; cited from earlier work.
The conditions of data set [18]: prior art statement in words; cited from earlier work. The source holds these as a separate data set.
Data set [19] deals with Aspergillus niger. Nature of the data set: antifungal activity on Sabourand agar. Particulars: read-out: minimum inhibitory concentration. It counts as cell-based. The procedure:
(§3) The activities of ethyl 2,9-dichlorothiazolo[5,4-f]quinoline-8-carboxylate-6-oxide (Compound (F)) on Trichophyton rubrum and Aspergillus niger were tested on Sabourand agar. […] The minimum inhibitory concentrations were 0.78 mcg/ml for Trichophyton rubrum and 25 mcg/ml for Aspergillus niger.

For data set [20], the system named is Trichophyton rubrum. Put plainly: antifungal activity on Sabourand agar. In kind it is cell-based. Particulars: read-out: minimum inhibitory concentration. The procedure: as §3
The subject of data set [21] is Trichophyton rubrum and Aspergillus niger. Nature of the data set: antifungal activity on Sabourand agar, fungi tested overall. It counts as cell-based. As to the method:
as §3

Data set [22] concerns gram-negative bacteria. Nature of the data set: in vitro antibacterial activity on gram-negative bacteria, tube dilution method. It counts as cell-based. Particulars: for antibacterial activities on gram-negative bacteria: tube dilution method, result in words.
Description: as §1

A short description of data set [23]: concentrations in serum of mice after a single oral dose. It counts as in vivo. Particulars: single oral dose of 50 mg/kg. As to the method:
[…] concentrations in serum of Compound (A) and Compound (D) were determined in the mice after a single oral dose of 50 mg/kg. […] The peak value for Compound (A) was about 12 times higher than that of Compound (D).

A short description of data set [24]: urinary excretion in fasting rats after a single oral dose. In kind it is in vivo. Particulars: single oral dose of 50 mg/kg. As to the method: Urinary excretions in fasting rats after a single oral dose of 50 mg/kg were also examined.
Compound (A) was excreted in the urine about 7 times faster than Compound (D). Recovery rates of Compound (A) in the urine were 2.0% after 24 hours.

Data set [25] in a line: preliminary toxicity in rats, 9 days oral. It counts as in vivo, female rats of Spraugue-Dewlty-SLC strain. The following applies: 1000 to 2000 mg/kg/day orally for 9 days. The procedure:
To 6-week old female rats of Spraugue-Dewlty-SLC strain, 1000 to 2000 mg/kg/day of Compound A were administered orally for 9 days.

The mark [26] stands for this setting: Escherichia coli NIHJ, tube dilution method.
Setting [27] is: PCI602, Klebsiella pneumoniae PCI 602, tube dilution method, read-out: In vitro Antibacterial Activities.
The mark [28] stands for this setting: GN2425, Proteus mirabilis GN-2425, tube dilution method, read-out: In vitro Antibacterial Activities.
The mark [29] stands for this setting: HX19, Proteus vulgaris HX-19, tube dilution method, read-out: In vitro Antibacterial Activities.
The mark [30] stands for this setting: Pseudomonas aeruginosa 104, tube dilution method, read-out: In vitro Antibacterial Activities.
[31] abbreviates: Staphylococcus aureus 209-P, tube dilution method.

In brackets after ≈: the same amount, converted by molar mass. Where two headings read alike, the source gives them in different places. Where only a bound is given, the exact number is not on record here.

Take `O=C(O)c1cn(OCc2ccccc2)c2ccc3c(sc(=O)n3Cc3ccccc3)c2c1=O` [B, 3-benzyl-6-benzyloxy-2,3,6,9-tetrahydro-2,9-dioxothiazolo[5,4-f]quinoline-8-carboxylic acid]: the MIC in data set [1] was 0.78 µg/mL (≈ 1.7 µM); in data set [2] it was 1.56 µg/mL (≈ 3.4 µM); in data set [3] (setting [26]) it was above 200 µg/mL; in [4] (setting [27]) it was above 200 µg/mL; in data set [5] (setting [28]), above 200 µg/mL; in data set [6] (setting [29]), above 200 µg/mL. The MIC was above 200 µg/mL in data set [7] (setting [30]); 1.56 µg/mL (≈ 3.4 µM) in data set [8]; 3.13 µg/mL (≈ 6.83 µM) in [9]; 1.56 µg/mL (≈ 3.4 µM) in data set [10] (setting [31]); 1.56 µg/mL (≈ 3.4 µM) in [11]. Besides, the “inhibitory activity on gram-positive bacteria” value in data set [12] is reported as “exhibited inhibitory activity on gram-positive bacteria”.
As for `CCn1cc(C(=O)O)c(=O)c2ccc(C)nc21` [E, nalidixic acid, reference compound], the MIC in [3] (Escherichia coli) was 3.13 µg/mL (≈ 13.5 µM); in data set [4] (Klebsiella pneumoniae, PCI602, read-out: In vitro Antibacterial Activities) it was 3.13 µg/mL (≈ 13.5 µM); in data set [5] (Proteus mirabilis, GN2425, read-out: In vitro Antibacterial Activities), 6.25 µg/mL (≈ 26.9 µM); in data set [6] (Proteus vulgaris, HX19, read-out: In vitro Antibacterial Activities), 0.78 µg/mL (≈ 3.36 µM); in [7] (Pseudomonas aeruginosa, 104, read-out: In vitro Antibacterial Activities) it was above 200 µg/mL; in data set [10] (Staphylococcus aureus, 209P) it was 100 µg/mL (≈ 431 µM).
Consider `CCn1cc(C(=O)O)c(=O)c2c3sc(=O)n(C)c3ccc21` [Compound D, 6-ethyl-2,3,6,9-tetrahydro-3-methyl-2,9-dioxothiazolo[5,4-f]quinoline-8-carboxylic acid, reference compound], for which the MIC is 0.25 µg/mL (≈ 0.821 µM) in [1]; 0.2 µg/mL (≈ 0.657 µM) in data set [3] (setting [26]); 0.2 µg/mL (≈ 0.657 µM) in [4] (setting [27]); 0.78 µg/mL (≈ 2.56 µM) in data set [5] (setting [28]); 0.1 µg/mL (≈ 0.329 µM) in data set [6] (setting [29]); above 200 µg/mL in data set [7] (setting [30]). The MIC in data set [10] (setting [31]) turned out to be 12.5 µg/mL (≈ 41.1 µM). In addition, the ED50 is above 100 mg/kg in data set [13], above 40 mg/kg in data set [14] and above 40 mg/kg in data set [15]. In data set [16], the “activities on the organism tested in vivo” value is reported as “did not show activities on the organism tested”. Further, the “antibacterial activity in vitro” value in data set [17] is reported as “noticeable antibacterial activity in vitro”. In addition, the “antibacterial activity in vivo” value in data set [18] was “does not possess a sufficient antibacterial activity in vivo”.
Turning to `CCOC(=O)c1c[n+]([O-])c2ccc3nc(Cl)sc3c2c1Cl` [F, ethyl 2,9-dichlorothiazolo[5,4-f]quinoline-8-carboxylate-6-oxide], the results for the MIC in data set [19] and in [20] were 25 µg/mL (≈ 72.8 µM) and 0.78 µg/mL (≈ 2.27 µM), respectively. Moreover, the “inhibitory activity on the fungi tested” value in data set [21] (Sabourand agar, result in words) is “exhibited inhibitory activity on the fungi tested”. The “antifungal activity in vitro relative to griseofulvin” value in data set [21] (in vitro, comparison in words) is “twice as active than griseofulvin”.
`COn1cc(C(=O)O)c(=O)c2c3sc(=O)n(C)c3ccc21` [Compound A, 2,3,6,9-Tetrahydro-6-methoxy-3-methyl-2,9-dioxothiazolo[5,4-f]quinoline-8-carboxylic acid]: the MIC in data set [1] stood at 0.5 µg/mL (≈ 1.63 µM); in [3] (setting [26]) it was 0.2 µg/mL (≈ 0.653 µM); in data set [4] (setting [27]) it was 0.2 µg/mL (≈ 0.653 µM); in data set [5] (setting [28]), 0.39 µg/mL (≈ 1.27 µM); in data set [6] (setting [29]), 0.1 µg/mL (≈ 0.326 µM); in [7] (setting [30]) it was 25 µg/mL (≈ 81.6 µM). For the same compound, the MIC in [10] (setting [31]) was 12.5 µg/mL (≈ 40.8 µM). Also, the “activity in vitro compared with Compound (D)” value in [22] (comparison in words) is on record as “as active as Compound (D)”. Also, the “activity in vitro compared with Compound (E)” value in [22] (comparison with nalidixic acid in words) was “more active than Compound (E)”. Moreover, the “antibacterial activities on gram-negative bacteria” value in [22] is “showed antibacterial activities on gram-negative bacteria”. Moreover, the values for the 50% effective dose (ED50) in data set [13], in data set [14] and in [15] were 50 mg/kg, above 20 mg/kg and 14 mg/kg, respectively. In addition, the “effectiveness in protecting mice against E. Coli No. 34, compared with Compound (D)” value in [13] (oral, comparison in words) is recorded as “more effective than Compound (D)”. Besides, in [15] (oral, comparison in words), the “effectiveness in protecting mice against P. Mirabilis GN 2425, compared with Compound (D)” value was “more effective than Compound (D)”. For the same compound, the “time at which serum levels reached a maximum” value in data set [23] is “within an hour”. In addition, the “peak serum value relative to Compound (D)” value in [23] (times higher than Compound (D)) was “about 12 times”. Also, the dose excreted at 24 h in [24] (rat, urine, after 24 hours, read-out: Recovery rates in the urine) was 2%. Further, in data set [24], the “excretion in the urine, times faster than Compound (D)” value is recorded as “about 7 times”. The “urinary concentration compared with Compound (D)” value in data set [24] (in words) is reported as “superior to Compound (D)”. The “urinary recovery rate compared with Compound (D)” value in [24] (in words) was “superior to Compound (D)”. For the same compound, the macroscopic examinations entry in [25] was “no abnormal findings were observed”. Moreover, in data set [25], the symptoms result is “No significant symptoms were observed”. Besides, the “urinalysis (pH, protein, glucose, ketone bodies and occult blood)” value in [25] is “no abnormality was found”. Further, in [25] (at all doses), the body weight entry is listed as “did not decrease”. The body weight-gain entry in data set [25] (at all doses) is “slightly decreased”.
`C=CCOn1cc(C(=O)O)c(=O)c2c3sc(=O)n(CC=C)c3ccc21` [C, 2,3,6,9-tetrahydro-3-allyl-6-allyloxy-2,9-dioxothiazolo[5,4-f]quinoline-8-carboxylic acid]: the MIC in data set [3] (setting [26]) was 100 µg/mL (≈ 279 µM); in data set [4] (setting [27]), 200 µg/mL (≈ 558 µM); in [5] (setting [28]), above 200 µg/mL; in data set [6] (setting [29]), 3.13 µg/mL (≈ 8.73 µM); in [7] (setting [30]), above 200 µg/mL; in data set [10] (setting [31]) it was 50 µg/mL (≈ 140 µM). For the same compound, the “antibacterial activities on gram-negative bacteria” value in data set [22] is recorded as “showed antibacterial activities on gram-negative bacteria”.
